In the experiment the test system is PGE2 production in 3T3 cells. The experiment in a line: PGE2 inhibition in 3T3 cells stimulated with calcium ionophore (Cayman PGE2 monoclonal EIA kit). It counts as cell-based. Particulars: Mus musculus, NIH3T3, at 0.488 μg/mL, relative to control cells not exposed, read-out: highest PGE2 inhibition observed. As for the experimental part:
As is known in the art, prostaglandin E2 (PGE2) activity can be used to measure anti-inflammatory activity of a substance. PGE2 inhibitory activity can be measured by the ability of test samples to inhibit PGE2 production in 3T3 cells when stimulated with calcium ionophore. As understood in the art, aspirin and ibuprofen may be included in the assay as a positive control. The in vitro production of PGE2 from 3T3 cells was measured using the Cayman Chemical Prostaglandin E2 monoclonal EIA (Enzyme Immuno Assay) kit. The cells were exposed to extracts derived from dunder and molasses and stimulated with calcium ionophore. The cell supernatants were then assayed for PGE2 production. The cell cytotoxicity of the samples was tested against 3T3 cells to confirm that the observed PGE2 inhibition was not due to cell cytotoxicity. Aspirin and ibuprofen were used as positive controls.

The structures appear in SMILES notation.

As usually defined, the inhibition is the change of the read-out against control, counted positive when it falls. With `CC(C)Cc1ccc(C(C)C(=O)O)cc1` (stereo not shown) [ibuprofen], the inhibition at 0.488 µg/mL came to 42.1%.
